Data reported in the NIST ThermoML archive (doi:10.1021/je030156p).
± gives the expanded uncertainty stated by the source.

Conditions: Liquid, Ebulliometric method (Recirculating still)

Structure (SMILES) | vapor or sublimation pressure (268.15 K) | vapor or sublimation pressure (273.15 K) | vapor or sublimation pressure (283.15 K) | vapor or sublimation pressure (293.15 K) | vapor or sublimation pressure (303.15 K) | vapor or sublimation pressure (313.15 K)
FC(F)C(F)(F)F [pentafluoroethane] | 573.7 ± 2 kPa | 671.4 ± 2.1 kPa | 907.6 ± 2.1 kPa | 1202.8 ± 2.1 kPa | 1566 ± 2.2 kPa | 2004.9 ± 2.2 kPa
CCC [propane] | 407.9 ± 2 kPa | 476.9 ± 2 kPa | 637.2 ± 2.1 kPa | 839.2 ± 2.1 kPa | 1074.6 ± 2.1 kPa | 1364.3 ± 2.2 kPa
